The target in this assay is Human Factor D (Homo sapiens (Human), UniProt P00746). Kind of assay: Human Factor D Assay. The format is biochemical. In short, it runs like this:
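Factor D (from human serum) 80 nM final + cpd, 5 min RT, 50 mM Tris/1M NaCl pH 7.5; add Z-L-Lys-SBzl 100 μM and DTNB 100 μM final. IC50 by nonlinear fit of rates vs [cpd].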

Setting [1] is: Human Factor D 80 nM, substrate Z-L-Lys-SBzl, read-out: IC50.
The mark [2] stands for this setting: Human Factor D assay of Example 8, Table 2, read-out: IC50.
[3] abbreviates: Human Factor D, Table 3, read-out: IC50.
[4] abbreviates: Table 3, Human Factor D 80 nM, substrate Z-L-Lys-SBzl, read-out: IC50 (Stars).

Like-named read-outs stand apart in the source and are kept apart here. Where only a bound is given, the exact number is not on record here.

By IC50 is commonly meant the concentration that gives 50% inhibition.

Human Factor D, sequence (P00746 26-253): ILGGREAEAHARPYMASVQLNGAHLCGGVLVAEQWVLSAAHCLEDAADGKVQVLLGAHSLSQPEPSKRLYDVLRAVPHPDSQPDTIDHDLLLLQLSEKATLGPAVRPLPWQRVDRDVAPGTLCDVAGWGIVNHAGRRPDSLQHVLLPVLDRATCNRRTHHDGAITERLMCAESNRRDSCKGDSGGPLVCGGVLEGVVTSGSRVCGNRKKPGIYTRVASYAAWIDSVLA

As for `CC(=O)c1cn(CC(=O)N2C[C@H](F)C[C@H]2C(=O)Nc2cccc(-c3ccccc3Cl)c2F)c2ccc(N3CCN(c4ncc(F)cn4)CC3)cc12` [Compound 32, (2S,4R)-1-(2-(3-acetyl-5-(4-(5-fluoropyrimidin-2-yl)piperazin-1-yl)-1H-indol-1-yl)acetyl)-N-(2′-chloro-2-fluorobiphenyl-3-yl)-4-fluoropyrrolidine-2-carboxamide], under setting [1], the half-inhibitory concentration (IC50) is < 1 µM.
On the same count and under the same terms, with `CC(=O)c1cn(CC(=O)N2C[C@H](F)C[C@H]2C(=O)Nc2noc(-c3ccccc3Cl)n2)c2ccc(-c3ccnnc3)cc12` [Compound 182, (2S,4R)-1-(2-(3-acetyl-5-(pyridazin-4-yl)-1H-indol-1-yl)acetyl)-N-(5-(2-chlorophenyl)-1,2,4-oxadiazol-3-yl)-4-fluoropyrrolidine-2-carboxamide] the figure was < 1 µM.
In the case of `CC(=O)c1cn(CC(=O)N2C[C@H](F)C[C@H]2C(=O)Nc2cccnc2O)c2ccc(-c3ccnnc3)cc12` [Compound 197], the IC50 under setting [2] was > 10 µM.
`COC(=O)c1ncc(-c2ccc3c(c2)c(C(C)=O)nn3CC(=O)N2C[C@H](F)C[C@H]2C(=O)Nc2cccc(Br)n2)cn1` [Compound 596, methyl 5-(3-Acetyl-1-(2-((2S,4R)-2-((6-bromopyridin-2-yl)carbamoyl)-4-fluoropyrrolidin-1-yl)-2-oxoethyl)-1H-indazol-5-yl)pyrimidine-2-carboxylate]: under setting [3], the IC50 is < 1 µM.
As for `Cc1ncc(-c2ccc3c(c2)c(C(N)=O)nn3CC(=O)N2[C@@H]3C[C@@H]3C[C@H]2C(=O)Nc2cccc(Br)n2)cn1` [Compound 202, 1-(2-((1R,3S,5R)-3-(6-bromopyridin-2-ylcarbamoyl)-2-azabicyclo[3.1.0]hexan-2-yl)-2-oxoethyl)-5-(2-methylpyrimidin-5-yl)-1H-indazole-3-carboxamide], the IC50 under setting [2] is < 1 µM.
On to `CC(=O)c1nn(CC(=O)N2C[C@H](F)C[C@H]2C(=O)Nc2cccc(C(C)C)n2)c2ccc(-c3cnc4cc(C)nn4c3)cc12` [Compound 680, (2S,4R)-1-(2-(3-acetyl-5-(2-methylpyrazolo[1.5-a]pyrimidin-6-yl)-1H-indazol-1-yl)acetyl)-4-fluoro-N-(6-isopropylpyridin-2-yl)pyrrolidine-2-carboxamide], for which, under setting [3], the IC50 was < 1 µM.
`CC(=O)c1cn(CC(=O)N2C[C@H](F)C[C@H]2C(=O)Nc2cncc(Cl)c2)c2ccc(-c3ccnnc3)cc12` [Compound 66, (2S,4R)-1-(2-(3-acetyl-5-(pyridazin-4-yl)-1H-indol-1-yl)acetyl)-N-(5-chloropyridin-3-yl)-4-fluoropyrrolidine-2-carboxamide]: the half-inhibitory concentration (IC50) under setting [1] was < 1 µM.
Turning to `CC(=O)c1nn(CC(=O)N2C[C@@](F)(CN(C)C)C[C@H]2C(=O)Nc2nc(Br)ccc2C)c2ccc(-c3cnc(C)nc3)cc12` [Compound 645, (2S,4S)-1-(2-(3-Acetyl-5-(2-methylpyrimidin-5-yl)-1H-indazol-1-yl)acetyl)-N-(6-bromo-3-methylpyridin-2-yl)-4-((dimethylamino)methyl)-4-fluoropyrrolidine-2-carboxamide], the IC50 under setting [3] was < 1 µM.
For the compound `NC(=O)c1nn(CC(=O)N2C[C@H](F)C[C@H]2C(=O)NCc2cccnc2)c2ccc(-c3ccnnc3)cc12` [Compound 39, 1-(2-((2S,4R)-4-fluoro-2-(pyridin-3-ylmethylcarbamoyl)pyrrolidin-1-yl)-2-oxoethyl)-5-(pyridazin-4-yl)-1H-indazole-3-carboxamide], the 50% inhibitory concentration (IC50) is 1 to 10 µM.
In the case of `CC(=O)c1nn(CC(=O)N2C[C@H](F)C[C@H]2C(=O)Nc2nc(CC(F)(F)F)cs2)c2ccc(-c3cnc(C)nc3)cc12` [Compound 355, (2S,4R)-1-(2-(3-Acetyl-5-(2-methylpyrimidin-5-yl)-1H-indazol-1-yl)acetyl)-4-fluoro-N-(4-(2,2,2-trifluoroethyl)thiazol-2-yl)pyrrolidine-2-carboxamide], the IC50 under setting [4] is < 1 µM.
The same measure, in the same setting: with `COc1ncc(-c2ccc3c(c2)c(C(C)=O)nn3CC(=O)N2[C@@H]3C[C@@H]3C[C@H]2C(=O)Nc2cncc(Br)n2)cn1` [Compound 385, (1R,3S,5R)-2-(2-(3-Acetyl-5-(2-methoxypyrimidin-5-yl)-1H-indazol-1-yl)acetyl)-N-(6-bromopyrazin-2-yl)-2-azabicyclo[3.1.0]hexane-3-carboxamide] the figure was < 1 µM.
Take `CC1(C)Cc2ccc(NC(=O)[C@@H]3C[C@@H](F)CN3C(=O)Cn3nc(C(N)=O)c4cc(-c5ccnnc5)ccc43)cc2O1` [Compound 76, 1-(2-((2S,4R)-2-(2,2-dimethyl-2,3-dihydrobenzofuran-6-ylcarbamoyl)-4-fluoropyrrolidin-1-yl)-2-oxoethyl)-5-(pyridazin-4-yl)-1H-indazole-3-carboxamide]: the IC50 under setting [1] is < 1 µM.
`COc1cc(Br)nc(NC(=O)[C@@H]2C[C@@H](F)CN2C(=O)Cn2nc(C(C)=O)c3cc(-c4cnc(C)nc4)ccc32)c1` [Compound 351]: the IC50 under setting [4] is < 1 µM.
With `CC(=O)c1nn(CC(=O)N2[C@@H]3C[C@@H]3C[C@H]2C(=O)Nc2cccc(Br)n2)c2ccc(-c3ccc4nc(C)nn4c3)cc12` [Compound 660, (1R,3S,5R)-2-(2-(3-Acetyl-5-(2-methyl-[1,2,4]triazolo[1,5-a]pyridin-6-yl)-1H-indazol-1-yl)acetyl)-N-(6-bromopyridin-2-yl)-2-azabicyclo[3.1.0]hexane-3-carboxamide], the IC50 under setting [3] was < 1 µM.
With `COc1ncc(-c2ccc3c(c2)c(C(C)=O)nn3CC(=O)N2C[C@H](F)C[C@H]2C(=O)Nc2cccc(Br)n2)cn1` [Compound 384, (2S,4R)-1-(2-(3-Acetyl-5-(2-methoxypyrimidin-5-yl)-1H-indazol-1-yl)acetyl)-N-(6-bromopyridin-2-yl)-4-fluoropyrrolidine-2-carboxamide], the 50% inhibitory concentration (IC50) under setting [4] is < 1 µM.
Regarding `CC(=O)c1nn(CC(=O)N2C[C@H](F)C[C@H]2C(=O)Nc2cccc(Br)n2)c2ccc(-c3cnn(C4CC4)c3)cc12` [Compound 706, (2S,4R)-1-(2-(3-Acetyl-5-(1-cyclopropyl-1H-pyrazol-4-yl)-1H-indazol-1-yl)acetyl)-N-(6-bromopyridin-2-yl)-4-fluoropyrrolidine-2-carboxamide], the IC50 under setting [3] was < 1 µM.
The same measure, in the same setting: with `Cc1cccc(NC(=O)[C@@H]2[C@H]3CC[C@H](C3)N2C(=O)Cn2cc(C(N)=O)c3cc(-c4cnc5n4CCCC5)ccc32)n1` [Compound 698, 1-(2-((1R,3S,4S)-3-(6-Methylpyridin-2-ylcarbamoyl)-2-azabicyclo[2.2.1]heptan-2-yl)-2-oxoethyl)-5-(5,6,7,8-tetrahydroimidazo[1,2-a]pyridin-3-yl)-1H-indole-3-carboxamide] the figure was > 10 µM.
For `CC(=O)c1nn(CC(=O)N2[C@@H]3C[C@@H]3C[C@H]2C(=O)Nc2cccc(Br)n2)c2ccc(-c3cnc(C)nc3)cc12` [Compound 190, (1R,3S,5R)-2-(2-(3-acetyl-5-(2-methylpyrimidin-5-yl)-1H-indazol-1-yl)acetyl)-N-(6-bromopyridin-2-yl)-2-azabicyclo[3.1.0] hexane-3-carboxamide], the IC50 under setting [1] is < 1 µM.
Consider `COc1ncc(-c2ccc3c(c2)c(C(C)=O)cn3CC(=O)N2C[C@H](F)C[C@H]2C(=O)Nc2cccc(-c3ccccc3Cl)c2F)cn1` [Compound 27, (2S,4R)-1-(2-(3-acetyl-5-(2-methoxypyrimidin-5-yl)-1H-indol-1-yl)acetyl)-N-(2′-chloro-2-fluorobiphenyl-3-yl)-4-fluoropyrrolidine-2-carboxamide], for which the IC50 under setting [1] is < 1 µM.
In the case of `CC(=O)c1cn(CC(=O)N2C[C@H](F)C[C@H]2C(=O)Nc2cccc(Br)n2)c2ccc(-c3cnc4nccn4c3)cc12` [Compound 222, (2S,4R)-1-(2-(3-acetyl-5-(imidazo[1,2-a]pyrimidin-6-yl)-1H-indol-1-yl)acetyl)-N-(6-bromopyridin-2-yl)-4-fluoropyrrolidine-2-carboxamide], the IC50 under setting [2] is < 1 µM.
Turning to `CC(=O)c1cn(CC(=O)N2C[C@H](F)C[C@H]2C(=O)Nc2cccc(-c3ncccc3Cl)c2F)c2ccc(-c3cnc(C)nc3)cc12` [Compound 164, (2S,4R)-1-(2-(3-acetyl-5-(2-methylpyrimidin-5-yl)-1H-indol-1-yl)acetyl)-N-(3-(3-chloropyridin-2-yl)-2-fluorophenyl)-4-fluoropyrrolidine-2-carboxamide], the IC50 under setting [1] was < 1 µM.
As to `COCCOCCNC(=O)c1cc2ncc(-c3ccc4c(c3)c(C(C)=O)nn4CC(=O)N3C[C@H](F)C[C@H]3C(=O)Nc3cccc(Br)n3)cn2n1` [Compound 290, 6-(3-acetyl-1-(2-((2S,4R)-2-(6-bromopyridin-2-ylcarbamoyl)-4-fluoropyrrolidin-1-yl)-2-oxoethyl)-1H-indazol-5-yl)-N-(2-(2-methoxyethoxy)ethyl)pyrazolo[1,5-a]pyrimidine-2-carboxamide], the IC50 under setting [2] was < 1 µM.
As to `CC(=O)c1cn(CC(=O)N2C[C@H](F)C[C@H]2C(=O)Nc2cc(C)nc3nc(C(F)(F)F)nn23)c2ccc(-c3ccnnc3)cc12` [Compound 97, (2S,4R)-1-(2-(3-acetyl-5-(pyridazin-4-yl)-1H-indol-1-yl)acetyl)-4-fluoro-N-(5-methyl-2-(trifluoromethyl)-[1,2,4]triazolo[1,5-a]pyrimidin-7-yl)pyrrolidine-2-carboxamide], under setting [1], the IC50 is > 10 µM.
Regarding `CCc1ncc(-c2ccc3c(c2)c(C(C)=O)nn3CC(=O)N2C[C@H](F)C[C@H]2C(=O)Nc2cccc(Br)n2)cn1` [Compound 566, (2S,4R)-1-(2-(3-Acetyl-5-(2-ethylpyrimidin-5-yl)-1H-indazol-1-yl)acetyl)-N-(6-bromopyridin-2-yl)-4-fluoropyrrolidine-2-carboxamide], under setting [3], the IC50 was < 1 µM.
For the compound `CC(=O)c1nn(CC(=O)N2C[C@@](F)(CF)CC2C(=O)Nc2nc(Br)ccc2C)c2ccc(-c3cnc(N)nc3)cc12` (stereo in doubt) [Compound 579, (2S,4R)-1-(2-(3-acetyl-5-(2-aminopyrimidin-5-yl)-1H-indazol-1-yl)acetyl)-N-(6-bromo-3-methylpyridin-2-yl)-4-fluoro-4-(fluoromethyl) pyrrolidine-2-carboxamide], under setting [3], the IC50 was < 1 µM.

Values taken from US10287301B2 (Achillion Pharmaceuticals, Inc., priority 2015, dated 2019).
